Key:
[1] = tested on: A375 human melanoma tumors; test: Treatment of A375 human melanoma tumors in nude mice; assay type: in vivo, mouse
Method: Preparation of fresh solution of 200 μM Cy7.5-amine and 2.5% DMSO for in vivo studies. In the day of treatment, fresh solution of 200 μM Cy7.5-amine was prepared by diluting in PBS buffer the 8 mM Cy7.5-amine stock in DMSO, the final dilution contained 2.5% DMSO. As control 2.5% DMSO in PBS buffer was used.
Injection of A375 cells subcutaneously in athymic nude mice to generate the human melanoma tumor model. The A375 cells were culture as described before. Cells were harvested from sub-confluent plates, ˜90%, and fresh media was added to the cells the day before harvesting. The cells were harvested using 0.05% trypsin-EDTA (Gibco, 25-300-054). The harvested cells were re-dispersed in DMEM media without supplements at 50×10^6 cells mL^−1. The cell suspension was kept in ice. Then 100 μL of cells were injected per mouse (this was 5 million of cells per mouse) subcutaneously in the right flank of 7-8 weeks old female athymic nude mouse. Starting at day 2 the tumors were measured using a caliper. The typical volume of the tumors at day 2 was ˜33 mm^3. The volume of the tumor was calculated as: (½)×length×width×height. When the height was not possible to measure in the case of the tumors that were too small (usually <100 mm^3), then the tumor volume was calculated as: (½)×length×width^2.
Treatment of A375 tumors with Cy7.5-amine and NIR 730 nm light. The tumors were treated at day 3 (since 5 million initial cells were injected per tumor site) when the average tumors size was 35 mm^3. Forty mice were divided in 4 groups (number of mice per group, n=10): 1) Cy7.5-amine only 2) 2.5% DMSO only, 3) 2.5% DMSO+Light and 3) Cy7.5-amine+light. The day of treatment, fresh solutions (200 μM of Cy7.5-amine in PBS and controls 2.5% DMSO in PBS) were prepared as described before. The mice were anesthetized with isoflurane using a vaporizer. Then, each mouse was injected with 50 μL of 200 μM Cy7.5-amine solution in PBS or 2.5% DMSO, intratumorally. Then mice were kept for 25 min in the cages to let the Cy7.5-amine solution or DMSO solution interact with the tumors. Then, after the 25 min of incubation, the mice were treated (under anesthesia, using isoflurane) with 730 nm LED light source from Prizmatix applying a power intensity of 150 mWcm^−2 for 5 min (other power intensities were 210 mWcm^−2 for 5 min and 300 mWcm^−2 for 5 min as described in the treatment schedule in FIG. 27F). The light intensity was measured using an Optical Power Meter from Thorlabs, sensor model S302C and console model PM100D. When the treatment was finished the mice were put back into the cages and housed in the animal facility. The tumors sizes were measured every other day using a caliper in the first 20 days of the study and then in the late stage of the study twice a week.

A375 cells = test: Crystal violet cell viability assay; assay type: cell-based, human; settings: 2 μM; 10 min 730 nm light at 80 mW/cm^2
Method: Crystal violet cell viability assay. The crystal violet assay was used to measures the cell viability. The principle of this method is that the viable cells adhere to the surface of the cell culture dish and keep growing and remain attached through the standard cell culture conditions during a period of 1-2 days and through the staining conditions in the assay. […] For specific details, A375 cells were harvested and counted, and then 20,000 A375 cells per well were added in 24 cell culture well plate (Corning) and cultured for 1 day at standard incubation conditions of 37° C. and 5% CO2. The cells were treated in four experimental groups (4 samples per group): group 1) 0.1% DMSO, group 2) 0.1% DMSO+NIR light treatment, group 3) 2 μM Cy7.5-amine, and group 4) 2 μM Cy7.5-amine+NIR light. The treatments with 0.1% DMSO or 2 μM Cy7.5-amine were done by adding those respective concentrations to the cells in the media and then incubated for 60 min. Immediately after the incubation, the cells in the groups with “+NIR light”, were treated with 730 nm light at 80 mW/cm^2 for 10 min. After the treatment with NIR light, the media in all the groups was removed and fresh media was added. […] Then the crystal violet was quantified by its absorbance at 570 nm. The cell viability was calculated from the absorbance relative to the absorbance in the cells without any treatment. […]

CN1/C(=C\C=C2C=C(/C=C/C3=[N+](CCCCCC(=O)NCCCCCCN)c4ccc5ccccc5c4C3(C)C)CCC\2)C(C)(C)c2c1ccc1ccccc21 [Cy7.5-amine]
mice tumor free ([1]; 8 μg intratumoral + light (300 mWcm^−2 of 730 nm LED for 5 min)): 50%
survival rate of mice with A375 tumors ([1]; 8 μg intratumoral + light (300 mWcm^−2 of 730 nm LED for 5 min), day 120): 60%
effect on size of A375 tumors ([1]; 150-215 mWCm^−2): mild therapeutic effect
effect on size of A375 tumors ([1]; 300 mWCm^−2): strong effect on the regression of the tumor size
survival of mice with A375 tumors ([1]; Cy7.5-amine group without light): 20%
dead cells by crystal violet assay (A375 cells): 99.9%

From patent US20250170098A1, “MOLECULAR JACKHAMMER FOR MECHANICAL DESTRUCTION OF CELLULAR STRUCTURE” (William Marsh Rice University, priority 2022, published 2025)
